Converted amounts (≈) assume the structure as drawn.
Legend:
[1] = Inhibition the IL-6 secretion stimulated at a concentration of 10 ng/ml in osteoblastic MC3T3-E 1 cells.; type: functional; settings: Mus musculus, MC3T3-E1
Mus musculus [2] = assay: Effect on femoral weight loss in ovariectomized mice at a dose of 2.0mg/kg/day, ip; type: functional, organism-based
Mus musculus [3] = assay: Effect on femoral weight loss in ovariectomized mice at a dose of 0.4 mg/kg/day, ip; type: functional, organism-based

| Structure (SMILES) | IC50 [1] | Recovery (Mus musculus [2]) | Recovery (Mus musculus [3]) |
| --- | --- | --- | --- |
| CCOC(=O)c1scnc1-c1ccccc1 | 30 µg/mL (≈ 129 µM) | – | – |
| CCOC(=O)c1sc(C)nc1-c1ccccc1 | 40 µg/mL (≈ 162 µM) | – | – |
| CCOC(=O)c1sc(NC)nc1-c1ccccc1 | 40 µg/mL (≈ 152 µM) | – | – |
| CCc1sc(N)nc1-c1ccccc1 | > 100 µg/mL | – | – |
| CNc1sc(N)nc1-c1ccccc1 | 40 µg/mL (≈ 195 µM) | – | – |
| CCOC(=O)c1sc(-c2ccncc2)nc1-c1ccccc1 | 90 µg/mL (≈ 290 µM) | – | – |
| CCOC(=O)c1sc(NC=O)nc1-c1ccccc1 | > 100 µg/mL | – | – |
| Nc1nc(-c2ccccc2)c(C(=O)O)s1 | > 100 µg/mL | – | – |
| CCCNC(=O)c1sc(N)nc1-c1ccccc1 | 40 µg/mL (≈ 153 µM) | – | – |
| Nc1nc(-c2ccccc2)cs1 | 60 µg/mL (≈ 340 µM) | – | – |
| CCOC(=O)c1sc(N)nc1-c1ccccc1 | 6 µg/mL (≈ 24.2 µM) | – | – |

Further lines, with some results ahead:

| IC50 [1] | Structure (SMILES) | Recovery (Mus musculus [2]) | Recovery (Mus musculus [3]) |
| --- | --- | --- | --- |
| 1 µg/mL (≈ 4.85 µM) | Cc1sc(N)nc1-c1ccc(O)cc1 | 35.5% | 13.9% |
| 35 µg/mL (≈ 135 µM) | Cc1sc(N)nc1-c1ccc(Cl)c(Cl)c1 | – | – |
| 10 µg/mL (≈ 44.5 µM) | Cc1sc(N)nc1-c1ccc(Cl)cc1 | 57.8% | 22.8% |
| 2.5 µg/mL (≈ 11.1 µM) | Cc1sc(N)nc1-c1cccc(Cl)c1 | – | – |
| 20 µg/mL (≈ 78.5 µM) | Nc1nc(-c2ccc(Cl)cc2)c(C(=O)O)s1 | 8.6% | 7.1% |
| 27 µg/mL (≈ 130 µM) | Cc1sc(N)nc1-c1ccc(F)cc1 | – | – |
| 24 µg/mL (≈ 117 µM) | Cc1ccc(-c2nc(N)sc2C)cc1 | – | – |
| 6 µg/mL (≈ 21.2 µM) | CCOC(=O)c1sc(N)nc1-c1ccc(Cl)cc1 | – | – |
| 8 µg/mL (≈ 30.9 µM) | Cc1sc(N)nc1-c1ccc(Cl)cc1Cl | – | – |
| 7 µg/mL (≈ 31.8 µM) | COc1ccc(-c2nc(N)sc2C)cc1 | – | – |
| 3 µg/mL (≈ 11.6 µM) | Cc1sc(N)nc1-c1ccc(C(F)(F)F)cc1 | – | – |
| 10 µg/mL (≈ 52.6 µM) | Cc1sc(N)nc1-c1ccccc1 | – | – |
| 50 µg/mL (≈ 223 µM) | Cc1sc(N)nc1-c1ccccc1Cl | – | – |
| 39 µg/mL (≈ 146 µM) | Cc1sc(N)nc1-c1ccc(-c2ccccc2)cc1 | – | – |

From ChEMBL document CHEMBL1131667, “4-Phenylthiazole derivatives inhibit IL-6 secretion in osteoblastic cells and suppress bone weight loss in ovariectomized mice” (Bioorg Med Chem Lett, 1999)
